Measured values taken from ChEMBL document CHEMBL1157062, “Malyngolide dimer, a bioactive symmetric cyclodepside from the panamanian marine cyanobacterium Lyngbya majuscula” (J Nat Prod, 2010).

Tests used:
[1] = test system: Plasmodium falciparum; test: Antiplasmodial activity against Plasmodium falciparum W2 assessed as picogreen-DNA intercalation by microfluorimetric assay; type: functional, organism-based
[2] = Cytotoxicity against human NCI-H460 cells assessed as cell viability at 9 uM after 48 hrs by MTT assay; type: cell-based; details: read-out: Activity
[3] = Cytotoxicity against human NCI-H460 cells assessed as cell viability at 55 uM after 48 hrs by MTT assay; type: cell-based; details: read-out: Activity
[4] = target: T1, NAD-dependent protein deacetylase sirtuin-2 (Homo sapiens) (UniProt Q8IXJ6); test: Inhibition of SIRT2 at 50 uM
T1 sequence (whole entry): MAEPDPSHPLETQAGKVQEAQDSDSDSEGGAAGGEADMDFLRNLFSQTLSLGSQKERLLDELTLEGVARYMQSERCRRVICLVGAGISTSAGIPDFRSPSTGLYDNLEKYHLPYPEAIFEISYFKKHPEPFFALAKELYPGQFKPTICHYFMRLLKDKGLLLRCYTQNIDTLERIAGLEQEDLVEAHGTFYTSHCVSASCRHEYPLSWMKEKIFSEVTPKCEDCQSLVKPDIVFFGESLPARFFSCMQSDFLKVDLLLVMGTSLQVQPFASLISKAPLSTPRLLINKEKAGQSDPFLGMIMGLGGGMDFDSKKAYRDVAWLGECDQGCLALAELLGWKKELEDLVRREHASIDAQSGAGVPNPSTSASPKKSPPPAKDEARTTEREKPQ

[5] = target: T1, NAD-dependent protein deacetylase sirtuin-2 (Homo sapiens); test: Inhibition of SIRT2

SMILES: CCCCCCCCC[C@@]1(CO)CC[C@@H](C)C(=O)O[C@@](CO)(CCCCCCCCC)CC[C@@H](C)C(=O)O1
- IC50 [1]: 19 µM
- viability at 48 h, 9 µM [2]: 110%
- viability at 48 h, 55 µM [3]: 10%
- inhibition [4]: 30%

SMILES: CCCCCCCCCCC[C@]1(CO)CCCC(=O)O[C@](CO)(CCCCCCCCCCC)CCCC(=O)O1
- INH [5]: 0.176 µM
